According to PubChem BioAssay (NCI):
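Each compound was tested at five concentrations against cells in 96-well plates for 48 hours. The concentration for full growth arrest is given as TGI.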

How the values were obtained:
Experiment in all cases: NCI tumour cell line growth inhibition, 48 h
786-0 renal = test system: 786-0 renal
A498 renal = test system: A498 renal
A549 NSCLC = test system: A549 NSCLC
ACHN renal = test system: ACHN renal
BT-549 breast = test system: BT-549 breast
CAKI-1 renal = test system: CAKI-1 renal
CCRF-CEM leukemia = test system: CCRF-CEM leukemia
COLO 205 colon = test system: COLO 205 colon
DU-145 prostate = test system: DU-145 prostate
EKVX NSCLC = test system: EKVX NSCLC
HCC-2998 colon = test system: HCC-2998 colon
HCT-116 colon = test system: HCT-116 colon
HCT-15 colon = test system: HCT-15 colon
HL-60(TB) leukemia = test system: HL-60(TB) leukemia
HOP-62 NSCLC = test system: HOP-62 NSCLC
HOP-92 NSCLC = test system: HOP-92 NSCLC
HS 578T breast = test system: HS 578T breast
HT29 colon = test system: HT29 colon
IGROV1 ovarian = test system: IGROV1 ovarian
K-562 leukemia = test system: K-562 leukemia
KM12 colon = test system: KM12 colon
LOX IMVI melanoma = test system: LOX IMVI melanoma
M14 melanoma = test system: M14 melanoma
MALME-3M melanoma = test system: MALME-3M melanoma
MCF7 breast = test system: MCF7 breast
MDA-MB-231 breast = test system: MDA-MB-231 breast
MDA-MB-435 = test system: MDA-MB-435
MDA-N = test system: MDA-N
MOLT-4 leukemia = test system: MOLT-4 leukemia
NCI-H23 lung = test system: NCI-H23 lung
NCI-H460 lung = test system: NCI-H460 lung
NCI-H522 lung = test system: NCI-H522 lung
NCI/ADR-RES ovarian = test system: NCI/ADR-RES ovarian
OVCAR-3 ovarian = test system: OVCAR-3 ovarian
OVCAR-4 ovarian = test system: OVCAR-4 ovarian
OVCAR-5 ovarian = test system: OVCAR-5 ovarian
OVCAR-8 ovarian = test system: OVCAR-8 ovarian
PC-3 prostate = test system: PC-3 prostate
RPMI-8226 leukemia = test system: RPMI-8226 leukemia
RXF 393 renal = test system: RXF 393 renal
SF-268 CNS = test system: SF-268 CNS
SF-295 CNS = test system: SF-295 CNS
SF-539 CNS = test system: SF-539 CNS
SK-MEL-2 melanoma = test system: SK-MEL-2 melanoma
SK-MEL-28 melanoma = test system: SK-MEL-28 melanoma
SK-MEL-5 melanoma = test system: SK-MEL-5 melanoma
SK-OV-3 ovarian = test system: SK-OV-3 ovarian
SN12C renal = test system: SN12C renal
SNB-19 CNS = test system: SNB-19 CNS
SNB-75 CNS = test system: SNB-75 CNS
SW-620 colon = test system: SW-620 colon
T-47D breast = test system: T-47D breast
TK-10 renal = test system: TK-10 renal
U251 CNS = test system: U251 CNS
UACC-257 melanoma = test system: UACC-257 melanoma
UACC-62 melanoma = test system: UACC-62 melanoma
UO-31 renal = test system: UO-31 renal
NCI-H226 lung = test system: NCI-H226 lung
SR leukemia = test system: SR leukemia

SMILES: Nc1ncnc2c1ccn2C/C=C/CO
- TGI (786-0 renal): > 100 µM
- TGI (A498 renal): > 100 µM
- TGI (A549 NSCLC): > 100 µM
- TGI (ACHN renal): > 100 µM
- TGI (BT-549 breast): > 100 µM
- TGI (CAKI-1 renal): > 100 µM
- TGI (CCRF-CEM leukemia): > 100 µM
- TGI (COLO 205 colon): > 100 µM
- TGI (DU-145 prostate): > 100 µM
- TGI (EKVX NSCLC): > 100 µM
- TGI (HCC-2998 colon): > 100 µM
- TGI (HCT-116 colon): > 100 µM
- TGI (HCT-15 colon): > 100 µM
- TGI (HL-60(TB) leukemia): > 100 µM
- TGI (HOP-62 NSCLC): > 100 µM
- TGI (HOP-92 NSCLC): > 100 µM
- TGI (HS 578T breast): > 100 µM
- TGI (HT29 colon): > 100 µM
- TGI (IGROV1 ovarian): > 100 µM
- TGI (K-562 leukemia): > 100 µM
- TGI (KM12 colon): > 100 µM
- TGI (LOX IMVI melanoma): > 100 µM
- TGI (M14 melanoma): > 100 µM
- TGI (MALME-3M melanoma): > 100 µM
- TGI (MCF7 breast): > 100 µM
- TGI (MDA-MB-231 breast): > 100 µM
- TGI (MDA-MB-435): > 100 µM
- TGI (MDA-N): > 100 µM
- TGI (MOLT-4 leukemia): > 100 µM
- TGI (NCI-H23 lung): > 100 µM
- TGI (NCI-H460 lung): > 100 µM
- TGI (NCI-H522 lung): > 100 µM
- TGI (NCI/ADR-RES ovarian): > 100 µM
- TGI (OVCAR-3 ovarian): > 100 µM
- TGI (OVCAR-4 ovarian): > 100 µM
- TGI (OVCAR-5 ovarian): > 100 µM
- TGI (OVCAR-8 ovarian): > 100 µM
- TGI (PC-3 prostate): > 100 µM
- TGI (RPMI-8226 leukemia): > 100 µM
- TGI (RXF 393 renal): > 100 µM
- TGI (SF-268 CNS): > 100 µM
- TGI (SF-295 CNS): > 100 µM
- TGI (SF-539 CNS): > 100 µM
- TGI (SK-MEL-2 melanoma): > 100 µM
- TGI (SK-MEL-28 melanoma): > 100 µM
- TGI (SK-MEL-5 melanoma): > 100 µM
- TGI (SK-OV-3 ovarian): > 100 µM
- TGI (SN12C renal): > 100 µM
- TGI (SNB-19 CNS): > 100 µM
- TGI (SNB-75 CNS): > 100 µM
- TGI (SW-620 colon): > 100 µM
- TGI (T-47D breast): > 100 µM
- TGI (TK-10 renal): > 100 µM
- TGI (U251 CNS): > 100 µM
- TGI (UACC-257 melanoma): > 100 µM
- TGI (UACC-62 melanoma): > 100 µM
- TGI (UO-31 renal): > 100 µM

SMILES: Cn1ncc2c(NCc3ccccc3)ncnc21
- TGI (786-0 renal): > 100 µM
- TGI (A498 renal): > 100 µM
- TGI (A549 NSCLC): > 100 µM
- TGI (ACHN renal): > 100 µM
- TGI (BT-549 breast): > 100 µM
- TGI (CAKI-1 renal): > 100 µM
- TGI (CCRF-CEM leukemia): > 100 µM
- TGI (COLO 205 colon): > 100 µM
- TGI (DU-145 prostate): > 100 µM
- TGI (EKVX NSCLC): > 100 µM
- TGI (HCC-2998 colon): > 100 µM
- TGI (HCT-116 colon): > 100 µM
- TGI (HCT-15 colon): > 100 µM
- TGI (HL-60(TB) leukemia): > 100 µM
- TGI (HOP-62 NSCLC): > 100 µM
- TGI (HT29 colon): > 100 µM
- TGI (IGROV1 ovarian): > 100 µM
- TGI (K-562 leukemia): > 100 µM
- TGI (KM12 colon): > 100 µM
- TGI (LOX IMVI melanoma): > 100 µM
- TGI (MALME-3M melanoma): > 100 µM
- TGI (MCF7 breast): > 100 µM
- TGI (MDA-MB-231 breast): > 100 µM
- TGI (MDA-MB-435): > 100 µM
- TGI (MDA-N): > 100 µM
- TGI (MOLT-4 leukemia): > 100 µM
- TGI (NCI-H226 lung): > 100 µM
- TGI (NCI-H23 lung): > 100 µM
- TGI (NCI-H460 lung): > 100 µM
- TGI (NCI/ADR-RES ovarian): > 100 µM
- TGI (OVCAR-3 ovarian): > 100 µM
- TGI (OVCAR-4 ovarian): > 100 µM
- TGI (OVCAR-5 ovarian): > 100 µM
- TGI (OVCAR-8 ovarian): > 100 µM
- TGI (RPMI-8226 leukemia): > 100 µM
- TGI (RXF 393 renal): > 100 µM
- TGI (SF-268 CNS): > 100 µM
- TGI (SF-295 CNS): > 100 µM
- TGI (SF-539 CNS): > 100 µM
- TGI (SK-MEL-28 melanoma): > 100 µM
- TGI (SK-MEL-5 melanoma): > 100 µM
- TGI (SK-OV-3 ovarian): > 100 µM
- TGI (SN12C renal): > 100 µM
- TGI (SNB-19 CNS): > 100 µM
- TGI (SNB-75 CNS): > 100 µM
- TGI (SR leukemia): > 100 µM
- TGI (SW-620 colon): > 100 µM
- TGI (T-47D breast): > 100 µM
- TGI (TK-10 renal): > 100 µM
- TGI (U251 CNS): > 100 µM
- TGI (UACC-257 melanoma): > 100 µM
- TGI (UACC-62 melanoma): > 100 µM
- TGI (UO-31 renal): > 100 µM

SMILES: Cc1nc2ccccc2c(-n2cccn2)c1CCn1cccn1
- TGI (786-0 renal): > 100 µM
- TGI (A498 renal): > 100 µM
- TGI (A549 NSCLC): > 100 µM
- TGI (ACHN renal): > 100 µM
- TGI (CAKI-1 renal): > 100 µM
- TGI (CCRF-CEM leukemia): > 100 µM
- TGI (COLO 205 colon): > 100 µM
- TGI (DU-145 prostate): > 100 µM
- TGI (EKVX NSCLC): > 100 µM
- TGI (HCC-2998 colon): > 100 µM
- TGI (HCT-116 colon): > 100 µM
- TGI (HCT-15 colon): > 100 µM
- TGI (HL-60(TB) leukemia): > 100 µM
- TGI (HOP-62 NSCLC): > 100 µM
- TGI (HOP-92 NSCLC): > 100 µM
- TGI (HS 578T breast): > 100 µM
- TGI (HT29 colon): > 100 µM
- TGI (IGROV1 ovarian): > 100 µM
- TGI (K-562 leukemia): > 100 µM
- TGI (KM12 colon): > 100 µM
- TGI (LOX IMVI melanoma): > 100 µM
- TGI (M14 melanoma): > 100 µM
- TGI (MALME-3M melanoma): > 100 µM
- TGI (MCF7 breast): > 100 µM
- TGI (MDA-MB-231 breast): > 100 µM
- TGI (MDA-MB-435): > 100 µM
- TGI (MDA-N): > 100 µM
- TGI (MOLT-4 leukemia): > 100 µM
- TGI (NCI-H226 lung): > 100 µM
- TGI (NCI-H23 lung): > 100 µM
- TGI (NCI-H460 lung): > 100 µM
- TGI (NCI-H522 lung): > 100 µM
- TGI (NCI/ADR-RES ovarian): > 100 µM
- TGI (OVCAR-3 ovarian): > 100 µM
- TGI (OVCAR-4 ovarian): > 100 µM
- TGI (OVCAR-5 ovarian): > 100 µM
- TGI (OVCAR-8 ovarian): > 100 µM
- TGI (PC-3 prostate): > 100 µM
- TGI (RPMI-8226 leukemia): > 100 µM
- TGI (RXF 393 renal): > 100 µM
- TGI (SF-268 CNS): > 100 µM
- TGI (SF-295 CNS): > 100 µM
- TGI (SF-539 CNS): > 100 µM
- TGI (SK-MEL-2 melanoma): > 100 µM
- TGI (SK-MEL-28 melanoma): > 100 µM
- TGI (SK-MEL-5 melanoma): > 100 µM
- TGI (SK-OV-3 ovarian): > 100 µM
- TGI (SN12C renal): > 100 µM
- TGI (SNB-19 CNS): > 100 µM
- TGI (SR leukemia): > 100 µM
- TGI (SW-620 colon): > 100 µM
- TGI (T-47D breast): > 100 µM
- TGI (TK-10 renal): > 100 µM
- TGI (U251 CNS): > 100 µM
- TGI (UACC-257 melanoma): > 100 µM
- TGI (UACC-62 melanoma): > 100 µM
- TGI (UO-31 renal): 3.43 µM
